Laboratory results as given in patent publication US20080160509A1, “ASSAYS FOR PREDICTING AND ASSESSING PREDISPOSITION TO MALE PATTERN BALDNESS” (priority 2006, published 2008).

Tests used:
[1] = biological target: sex hormone binding globulin (SHBG) (Homo sapiens, UniProt P04278); conditions: ratio versus testosterone; cited from earlier work
[2] = test system: bald subject (Norwood Level VII); test: Antiviral agent and hair growth study in a bald subject; assay type: in vivo, human
Excerpt: A bald subject (Norwood Level VII) who routinely gets fever blisters volunteered to take place in a study to see if the topical application and oral consumption of antiviral drugs would result in hair growth. The individual lacks any hairs on the top of their head. The participant was instructed to cleanse their scalp twice daily with a liquid cleanser using a sonic skincare brush (Clarisonic®). After cleansing topical acyclovir (5%) was applied. The subject is not a candidate for any of the FDA-approved hair loss medications because of a lack of vellus hairs.
After approximately four weeks of treatment, the participant was given valacyclovir (500 mg) instead of oral acyclovir because of potential acyclovir resistance. In addition, the concentration of topical acyclovir was increased to 10%.
The fact that vellus hair formation occurred and converted to pigmented hairs is highly unexpected in a participant with Norwood Level VII baldness.

Sequence of sex hormone binding globulin (SHBG) (P04278 30-402): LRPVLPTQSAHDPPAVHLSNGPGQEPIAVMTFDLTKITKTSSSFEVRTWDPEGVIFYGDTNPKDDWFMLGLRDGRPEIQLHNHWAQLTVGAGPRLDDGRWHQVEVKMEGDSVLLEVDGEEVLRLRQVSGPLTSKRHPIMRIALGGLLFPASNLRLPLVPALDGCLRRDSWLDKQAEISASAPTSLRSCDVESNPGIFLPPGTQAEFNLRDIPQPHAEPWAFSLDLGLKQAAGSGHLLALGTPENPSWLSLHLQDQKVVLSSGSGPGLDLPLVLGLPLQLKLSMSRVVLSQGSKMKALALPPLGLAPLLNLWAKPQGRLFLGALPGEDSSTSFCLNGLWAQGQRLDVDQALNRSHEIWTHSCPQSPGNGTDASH

SMILES | binding affinity for SHBG relative to testosterone [1] | conversion of vellus hairs to pigmented hairs ([2]; after 16 weeks of treatment, topical acyclovir 10% plus oral valacyclovir (500 mg)) | hair lengthening ([2]; after 20 weeks, topical acyclovir 10% plus oral valacyclovir (500 mg)) | hair growth on scalp ([2]; at 12 weeks, topical acyclovir increased to 10% plus oral valacyclovir (500 mg) from about week 4) | oral lesions ([2]; human, in vivo) | hair growth on scalp noted by participant ([2]; topical acyclovir (5%) after twice daily scalp cleansing, after two weeks of treatment, one person, Norwood Level VII)
C[C@]12CCC(=O)C[C@@H]1CC[C@@H]1[C@@H]2CC[C@]2(C)[C@@H](O)CC[C@@H]12 [DHT, 5α-dihydrotestosterone] | at least three times | – | – | – | – | –
Nc1nc2c(ncn2COCCO)c(=O)[nH]1 [acyclovir] | – | some of the vellus hairs converted to pigmented hairs | pigmented and unpigmented vellus hairs continued to lengthen | long, unpigmented vellus hairs were visible on the scalp | marked increase in oral lesions | small vellus hairs
